Measurements published in PMC6405874, “Development of a novel short 12-meric papiliocin-derived peptide that is effective against Gram-negative sepsis” (Scientific Reports, 2019).
Converted amounts (≈) assume the structure as drawn. No end group written: not given here.

Legend:
A. baumannii (KCTC 2508) = conditions: 1% peptone, 2 × 10^6 CFU/mL, 16 h, 37 °C
Procedure: (§1) The antimicrobial activities of Pap12 peptides were tested against four standard Gram-negative bacteria (E. coli, Pseudomonas aeruginosa, Acinetobacter baumannii, and Salmonella typhimurium), three standard Gram-positive bacteria (Staphylococcus aureus, Bacillus subtilis, and Staphylococcus epidermidis), and five MDR bacteria (MDREC CCARM 1229, MDRPA CCARM 2002, MDRAB CCARM 12035, MDRST CCARM 8007, and MRSA CCARM 3126) using the microbroth dilution method. The relative antibacterial activities were compared based on geometric means of MICs (GM).
(§2) Escherichia coli (KCTC 1682), Pseudomonas aeruginosa (KCTC 2004), Acinetobacter baumannii (KCTC 2508), Salmonella typhimurium (KCTC 1926), Bacillus subtilis (KCTC 3068), Staphylococcus aureus (KCTC 1621), and Staphylococcus epidermidis (KCTC 1917) were purchased from the Korean Collection for Type Cultures, Korea Research Institute of Bioscience & Biotechnology (Taejon, Korea). Clinical isolates of MDR E. coli (MDREC; CCARM 1229), P. aeruginosa (MDRPA; CCARM 2002), A. baumannii (MDRAB; CCARM 12035), S. typhimurium (MDRST; CCARM 8007), and S. aureus (MDRSA; CCARM 3126) were supplied by the Culture Collection of Antibiotic-Resistant Microbe (CCARM) at Seoul Women’s University in Korea. The E. coli K1 strain RS218 (O18:K1:H7) was kindly provided by Dr. Jang-Won Yoon of Kangwon National University (Gangwon-do, Korea).
(§3) Peptides were treated with 2 × 10^6 CFU/mL bacterial suspensions in 1% peptone media for 16 h at 37 °C.

[1] = test system: MDRAB 12035 (MDR A. baumannii CCARM 12035); conditions: 1% peptone, 2 × 10^6 CFU/mL, 16 h, 37 °C
Procedure: as §1, §2, §3

[2] = test system: MDREC 1229 (MDR E. coli CCARM 1229); conditions: 1% peptone, 2 × 10^6 CFU/mL, 16 h, 37 °C
Procedure: as §1, §2, §3

[3] = test system: MDRPA 2002 (MDR P. aeruginosa CCARM 2002); conditions: 1% peptone, 2 × 10^6 CFU/mL, 16 h, 37 °C
Procedure: as §1, §2, §3

[4] = test system: MDRST 8007 (MDR S. typhimurium CCARM 8007); conditions: 1% peptone, 2 × 10^6 CFU/mL, 16 h, 37 °C
Procedure: as §1, §2, §3

MRSA 3126 (CCARM 3126) = conditions: 1% peptone, 2 × 10^6 CFU/mL, 16 h, 37 °C
Procedure: as §1, §2, §3

[5] = test system: S. epidermidis (KCTC 1917); conditions: 1% peptone, 2 × 10^6 CFU/mL, 16 h, 37 °C
Procedure: as §1, §2, §3

Gram-negative bacteria = conditions: eight Gram-negative strains of Table 2
Procedure: as §1
(§4) The therapeutic index (TI) was calculated (Table 2) using HC10, the peptide concentration required to induce 10% hemolysis.
as §3

Gram-positive bacteria = conditions: four Gram-positive strains of Table 2
Procedure: as §1, §4, §3

[6] = test system: human red blood cells (hRBCs); test: Hemolysis of human red blood cells
Procedure: as §4
The toxicity of peptides to human red blood cells (hRBCs) was determined by measuring the peptide-induced release of haem, and percent hemolysis was calculated as described previously. The peptide-induced cytotoxicity of mouse RAW 264.7 macrophages, human keratinocyte HaCaT cells, and HEK-293 cells were determined by 3-(4,5-dimethylthiazol-2-yl)-2,5-diphenyltetrazolium bromide (MTT) assays as previously described.

[7] = test system: mouse macrophage RAW 264.7 cells; test: MTT cytotoxicity; type: cell-based; conditions: for cell survival: RAW 264.7, MTT
Source text: (§5) The toxicities of peptides against mammalian cells were checked by measuring the survival rate of mouse macrophage RAW 264.7 cells, human keratinocyte HaCaT cells, and HEK-293 human embryonic kidney epithelial (HEK-293) cells after treatment with different concentrations of peptides (Fig. 2B–D). […] Since melittin has higher hydrophobicity and a […] amphiphatic moment (µH) than those of Pap12 peptides, as listed in Table 1, its toxicity is much higher than those of Pap12 peptides.

B. subtilis (KCTC 3068) = conditions: 1% peptone, 2 × 10^6 CFU/mL, 16 h, 37 °C
Procedure: as §1, §2, §3

E. coli (KCTC 1682) = conditions: 1% peptone, 2 × 10^6 CFU/mL, 16 h, 37 °C
Procedure: as §1, §2, §3

[8] = test system: P. aeruginosa (KCTC 2004); conditions: 1% peptone, 2 × 10^6 CFU/mL, 16 h, 37 °C
Procedure: as §1, §2, §3

S. aureus (KCTC 1621) = conditions: 1% peptone, 2 × 10^6 CFU/mL, 16 h, 37 °C
Procedure: as §1, §2, §3

[9] = test system: S. typhimurium (KCTC 1926); conditions: 1% peptone, 2 × 10^6 CFU/mL, 16 h, 37 °C
Procedure: as §1, §2, §3

[10] = test system: HEK-293 human embryonic kidney epithelial cells; test: MTT cytotoxicity; type: cell-based; conditions: HEK-293, MTT, 50 µM
Source text: as §5

[11] = test system: human keratinocyte HaCaT cells; test: MTT cytotoxicity; type: cell-based; conditions: 50 µM
Source text: as §5

[12] = Survival of non-infected mice given peptide (acute toxicity); type: in vivo, BALB/c mice; conditions: 10 mg/kg i.p., over 4 days, 10 mice
Procedure: To determine the in vivo survival rate, four groups were established with 10 BALB/c mice per group. For the control group, 10 mice were given an intraperitoneal (i.p.) injection with PBS. […] In the third group, 10 mice were i.p. injected with Pap12-6 (10 mg/kg). […] Survival was evaluated for 4 days (0, 6, 12, 18, 24, 30, 36, 48, 60, 72, 84, and 96 h).

| Compound | Minimal inhibitory concentration (MIC), A. baumannii (A. baumannii (KCTC 2508)) [µM] | Minimal inhibitory concentration (MIC), MDRAB 12035 [1] [µM] | Minimal inhibitory concentration (MIC), MDREC 1229 [2] [µM] | Minimal inhibitory concentration (MIC), MDRPA 2002 [3] [µM] | Minimal inhibitory concentration (MIC), MDRST 8007 [4] [µM] | Minimal inhibitory concentration (MIC), MRSA 3126 (MRSA 3126 (CCARM 3126)) [µM] | Minimal inhibitory concentration (MIC), S. epidermidis [5] [µM] | GM, geometric mean of MICs, Gram-negative bacteria (Gram-negative bacteria) [µM] | GM, geometric mean of MICs, Gram-positive bacteria (Gram-positive bacteria) [µM] | Minimal inhibitory concentration (MIC), B. subtilis (B. subtilis (KCTC 3068)) [µM] | Minimal inhibitory concentration (MIC), E. coli (E. coli (KCTC 1682)) [µM] | Minimal inhibitory concentration (MIC), P. aeruginosa [8] [µM] | Minimal inhibitory concentration (MIC), S. aureus (S. aureus (KCTC 1621)) [µM] | Minimal inhibitory concentration (MIC), S. typhimurium [9] [µM] | HC10, peptide concentration resulting in 10% hemolysis of fresh human erythrocytes [6] [µM] | also measured |
| --- | --- | --- | --- | --- | --- | --- | --- | --- | --- | --- | --- | --- | --- | --- | --- | --- |
| CC[C@H](C)[C@H](NC(=O)CN)C(=O)NCC(=O)N[C@@H](C)C(=O)N[C@H](C(=O)N[C@@H](CC(C)C)C(=O)N[C@@H](CCCCN)C(=O)N[C@H](C(=O)N[C@@H](CC(C)C)C(=O)N[C@H](C(=O)N[C@H](C(=O)NCC(=O)N[C@@H](CC(C)C)C(=O)N1CCC[C@H]1C(=O)N[C@@H](C)C(=O)N[C@@H](CC(C)C)C(=O)N[C@H](C(=O)N[C@@H](CO)C(=O)N[C@@H](Cc1c[nH]c2ccccc12)C(=O)N[C@H](C(=O)N[C@@H](CCCCN)C(=O)N[C@@H](CCCNC(=N)N)C(=O)N[C@@H](CCCCN)C(=O)N[C@@H](CCCNC(=N)N)C(=O)N[C@@H](CCC(N)=O)C(=O)N[C@@H](CCC(N)=O)C(N)=O)[C@@H](C)CC)[C@@H](C)CC)[C@@H](C)O)[C@@H](C)O)C(C)C)C(C)C [Melittin, reference compound] | 8 (≈ 22.8 µg/mL) | 4 (≈ 11.4 µg/mL) | 8 (≈ 22.8 µg/mL) | 4 (≈ 11.4 µg/mL) | 8 (≈ 22.8 µg/mL) | 2 (≈ 5.69 µg/mL) | 4 (≈ 11.4 µg/mL) | 6 | 3 | – | – | – | – | – | – | toxicity against hRBCs (in words) ([6]; hRBCs): highly toxic; cytotoxicity against mammalian cells (in words) ([7]; MTT, RAW 264.7, HaCaT and HEK-293 cells (Fig. 2B-D)): displayed cytotoxicity at very low concentrations |
| RWKIFKKVVKKW-NH2 [Pap12-6] | 4 | 4 | 8 | 8 | 8 | 8 | 8 | 6 | 7 | 8 | 4 | 4 | 4 | 8 | 100 | cytotoxicity (in words) [10]: no cytotoxicity; cytotoxicity (in words) [11]: no cytotoxicity; cell survival ([7]; 50 µM): 80%; cell survival ([7]; up to 25 µM): 100%; survival of non-infected mice (lack of acute toxicity) [12]: all mice survived |
| RWKIFKKIEKVG-NH2 [Pap12-1] | 64 | 16 | 64 | 16 | 32 | 64 | 64 | 35 | 52 | 64 | 16 | 8 | 16 | 64 | 200 | – |
